Patent US6767906B2, “2-amino-6-anilino-purines and their use as medicaments” (Novartis AG, priority 1999, dated 2004)

## CC(C)n1cnc2c(Nc3cccc(NC(=O)C#Cc4ccc(Cl)cc4)c3)nc(NC3CCC(O)CC3)nc21 (centres unmarked) [Example 96, 3-(4-Chloro-phenyl)-propynoic acid {3-[2-(4-hydroxy-cyclohexylamino)-9-isopropyl-9H-purin-6-ylamino]-phenyl}-amide]
  melting point: 156 to 158 °C

## CCn1cnc2c(Nc3cccc(NC(=O)C#Cc4cc(C)ccc4C)c3)nc(N[C@H]3CC[C@H](O)CC3)nc21 [Example 109, N-{3-[9-Ethyl-2-(trans-4-hydroxy-cyclo-hexylamino)-9H-purin-6-yl-amino]-phenyl)-3-(2,5-dimethyl-phenyl)-propargylic acid amide]
  melting point: 231 to 232 °C

## CCn1cnc2c(Nc3cccc(NC(=O)C#Cc4cccc(C(F)(F)F)c4)c3)nc(NC3CCC(O)CC3)nc21 (centres unmarked) [Example 103, 3-(3-Trifluoromethyl-phenyl)-propynoic acid {3-[9-ethyl-2-(4-hydroxy-cyclohexylamino)-9H-purin 6-ylamino]-phenyl}-amide]
  melting point: 156 to 168 °C

## CCn1cnc2c(Nc3cccc(NC(=O)C#Cc4cccc(C)n4)c3)nc(NC3CCC(O)CC3)nc21 (centres unmarked) [Example 105, 3-(6-Methyl-pyridin-2-yl)-propynoic acid {3-[9-ethyl-2-(4-hydroxy-cyclohexylamino)-9H-purin-6-ylamino]-phenyl}-amide]
  melting point: 149 to 156 °C

## Cc1ccc(C#CC(=O)Nc2cccc(Nc3nc(NC4CCC(O)CC4)nc4c3ncn4C(C)C)c2)cc1 (centres unmarked) [Example 97, 3-p-Tolyl-propynoic acid {3-[2-(4-hydroxy-cyclohexylamino)-9-isopropyl-9H-purin-6-ylamino]-phenyl}-amide]
  melting point: 152 to 154 °C

## CCn1cnc2c(Nc3ccc(NC(=O)OC)cc3)nc(N[C@H]3CC[C@H](O)CC3)nc21 [Example 83, {4-(9-Ethyl-2-(trans-4-hydroxy-cyclo-hexylamino)-9H-purin-6-yl-amino]-phenyl)-carbamic acid methyl ester]
  melting point: 131 to 135 °C

## CCn1cnc2c(Nc3cccc(NC(=O)C#Cc4ccc(F)cc4)c3)nc(N[C@H]3CC[C@H](O)CC3)nc21 [Example 93, N-{3-[9-Ethyl-2-(trans-4-hydroxy-cyclo-hexylamino)-9H-purin-6-yl-amino]-phenyl}-3-(4-fluorophenyl)-propargylic acid amide]
  melting point: 144 to 146 °C

## CCn1cnc2c(Nc3ccc(NC(=O)Oc4ccccc4)cc3)nc(N[C@H]3CC[C@H](O)CC3)nc21
  melting point: 135 to 139 °C

## CCn1cnc2c(Nc3cccc(NC(=O)C#Cc4cccc(C)c4)c3)nc(NC3CCC(O)CC3)nc21 (centres unmarked) [Example 102, 3-m-Tolyl-propynoic acid {3-[9-ethyl-2-(4-hydroxy-cyclohexylamino)-9H-purin-6-ylamino]-phenyl}-amide]
  melting point: 164 to 171 °C

## CC(C)n1cnc2c(Nc3cccc(NC(=O)c4ccc(-c5ccccc5)cc4)c3)nc(NC3CCC(O)CC3)nc21 (centres unmarked) [Example 101, Biphenyl-4-carboxylic acid {3-[2-(4-hydroxy-cyclohexylamino)-9-isopropyl-9H-purin-6-ylamino]-phenyl]-amide]
  melting point: 226 to 228 °C

## CCn1cnc2c(Nc3cccc(NC(=O)C#Cc4c(Cl)cccc4Cl)c3)nc(N[C@H]3CC[C@H](O)CC3)nc21 [Example 107, N-{3-[9-Ethyl-2-(trans-4-hydroxy-cyclo-hexylamino)-9H-purin-6-yl-amino]-phenyl}-3-(2,6-dichlorophenyl)-propargylic acid amide]
  melting point: 234 to 236 °C

## CC(C)n1cnc2c(Nc3cccc(NC(=O)C#Cc4ccccc4)c3)nc(NC3CCC(O)CC3)nc21 (centres unmarked) [Example 100, 3-(Phenyl)-propynoic acid {3-[2-(4-hydroxy-cyclohexylamino)-9-isopropyl-9H-purin-6-ylamino]-phenyl}-amide]
  melting point: 162 to 164 °C

## COc1ccc(C#CC(=O)Nc2cccc(Nc3nc(NC4CCC(O)CC4)nc4c3ncn4C(C)C)c2)cc1 (centres unmarked) [Example 98, 3-(4-Methoxy-phenyl)-propynoic acid {3-[2-(4-hydroxy-cyclohexyl-amino)-9-isopropyl-9H-purin-6-ylamino]-phenyl)-amide]
  melting point: 246 to 248 °C

## CCn1cnc2c(Nc3cccc(NC(=O)Oc4ccccc4)c3)nc(N[C@H]3CC[C@H](O)CC3)nc21
  melting point: 131 to 134 °C

## CCn1cnc2c(Nc3ccc(NC(=O)OCC(C)C)cc3)nc(N[C@H]3CC[C@H](O)CC3)nc21 [Example 84, {4-[9-Ethyl-2-(trans-4-hydroxy-cyclo-hexylamino)-9H-purin-6-yl-amino]-phenyl}-carbamic acid isobutyl ester]
  melting point: 121 to 125 °C

## CCn1cnc2c(Nc3cccc(NC(=O)C#Cc4nccc(C)n4)c3)nc(NC3CCC(O)CC3)nc21 (centres unmarked) [Example 106, 3-(4-Methyl-pyrimidin-2-yl)-propynoic acid {3-[9-ethyl-2-(4-hydroxy-cyclohexylamino)-9H-purin-6-ylamino]-phenyl}-amide]
  melting point: 167 to 177 °C

## CCn1cnc2c(Nc3cccc(C(=O)NCc4ccc(OC)cc4)c3)nc(N[C@H]3CC[C@H](O)CC3)nc21 [Example 75, 3-[9-ethyl-2-(trans-4-hydroxy-cyclohexylamino)-9H-purin-6-yl-amino]-N-(4-methoxy-benzyl)-benzamide]
  melting point: 157 to 158 °C

## CCn1cnc2c(Nc3cccc(C(=O)NCc4ccccc4)c3)nc(N[C@H]3CC[C@H](O)CC3)nc21 [Example 72, N-benzyl-3-[9-ethyl-2-(trans-4-hydroxy-cyclohexylamino)-9H-purin-6-yl-amino]-benzamide]
  melting point: 215 °C

## CCn1cnc2c(Nc3cccc(NC(=O)C#Cc4ccc(OC)cc4)c3)nc(N[C@H]3CC[C@H](O)CC3)nc21 [Example 95, N-{3-[9-Ethyl-2-(trans-4-hydroxy-cyclo-hexylamino)-9H-purin-6-yl-amino]-phenyl}-3-(4-methoxyphenyl)-propargylic acid amide]
  melting point: 142 to 144 °C

## CCn1cnc2c(Nc3cccc(C(=O)NCc4ccc(C(F)(F)F)cc4)c3)nc(N[C@H]3CC[C@H](O)CC3)nc21 [Example 76, 3-[9-ethyl-2-(trans-4-hydroxy-cyclohexylamino)-9H-purin-6-yl-amino]-N-(4-trifluoromethyl-benzyl)-benzamide]
  melting point: 129 to 137 °C

## CCn1cnc2c(Nc3cccc(NC(=O)C#CCN4CCCCC4)c3)nc(NC3CCC(O)CC3)nc21 (centres unmarked) [Example 111, 4-Piperidin-1-yl-but-2-ynoic acid {3-[9-ethyl-2-(4-hydroxy-cyclohexyl-amino)-9H-purin-6-ylamino]-phenyl}-amide]
  melting point: 150 °C

## CCn1cnc2c(Nc3cccc(NC(=O)OC)c3)nc(N[C@H]3CC[C@H](O)CC3)nc21 [Example 86, {3-[9-Ethyl-2-(trans-4-hydroxy-cyclo-hexylamino)-9H-purin-6-yl-amino]-phenyl}-carbamic acid methyl ester]
  melting point: 214 to 217 °C

## CCCCc1ccc(N(c2nc(N[C@H]3CCCC[C@H]3C(N)=O)nc3c2ncn3CC)S(N)(=O)=O)cc1 (relative stereo) [Example 1, cis-2-[6-(4-butyl-aminosulfonyl-phenylamino)-9-ethyl-9H-purin-2-yl-amino]-cyclohexanecarboxylic acid amide]
  melting point: 220 °C

## CC(C)n1cnc2c(Nc3cccc(NC(=O)C#Cc4ccc(F)cc4)c3)nc(NC3CCC(O)CC3)nc21 (centres unmarked) [Example 99, 3-(4-Fluoro-phenyl)-propynoic acid {3-[2-(4-hydroxy-cyclohexylamino)-9-isopropyl-9H-purin-6-ylamino]-phenyl}-amide]
  melting point: 145 to 147 °C

## CCn1cnc2c(Nc3cccc(NC(=O)C#Cc4ccc(Cl)cc4)c3)nc(N[C@H]3CC[C@H](O)CC3)nc21 [Example 92, N-{3-[9-Ethyl-2-(trans-4-hydroxy-cyclo-hexylamino)-9H-purin-6-yl-amino]-phenyl}-3-(4-chlorophenyl)-propargylic acid amide]
  melting point: 148 to 150 °C

## CCn1cnc2c(Nc3cccc(C(=O)NCc4ccc(F)cc4)c3)nc(N[C@H]3CC[C@H](O)CC3)nc21 [Example 73, 3-[9-ethyl-2-(trans-4-hydroxy-cyclohexylamino)-9H-purin-6-yl-amino]-N-(4-fluoro-benzyl)-benzamide]
  melting point: 165 to 167 °C

## CCn1cnc2c(Nc3cccc(NC(=O)C#Cc4cccs4)c3)nc(N[C@H]3CC[C@H](O)CC3)nc21 [Example 108, N-{3-[9-Ethyl-2-(trans-4-hydroxy-cyclo-hexylamino)-9H-purin-6-yl-amino]-phenyl}-3-(2-thiophenyl)-propargylic acid amide]
  melting point: 158 to 161 °C

## CCn1cnc2c(Nc3cccc(NC(=O)C#CCN4CCN(C)CC4)c3)nc(NC3CCC(O)CC3)nc21 (centres unmarked) [Example 112, 4-(4-Methyl-piperazin-1-yl)-but-2-ynoic acid {3-[9-ethyl-2-(4-hydroxy-cyclohexylamino)-9H-purin-6-ylamino]-phenyl)-amide]
  melting point: 115 to 122 °C

## CCn1cnc2c(Nc3cccc(NC(=O)OCC(C)C)c3)nc(N[C@H]3CC[C@H](O)CC3)nc21 [Example 87, {3-[9-Ethyl-2-(trans-4-hydroxy-cyclo-hexylamino)-9H-purin-6-yl-amino]-phenyl}-carbamic acid isobutyl ester]
  melting point: 122 to 125 °C

## CCn1cnc2c(Nc3cccc(NS(C)(=O)=O)c3)nc(N[C@H]3CC[C@H](O)CC3)nc21 [Example 80, N-{3-[9-Ethyl-2-(trans-4-hydroxy-cyclo-hexylamino)-9H-purin-6-yl-amino]-phenyl} methanesulfonamide]
  melting point: 265 to 267 °C

## CCn1cnc2c(Nc3cccc(NS(=O)(=O)c4ccc(OC)cc4)c3)nc(N[C@H]3CC[C@H](O)CC3)nc21 [Example 82, N-{3-[9-Ethyl-2-(trans-4-hydroxy-cyclo-hexylamino)-9H-purin-6-yl-amino]-phenyl}-4-methoxy-benzenesulfonamide]
  melting point: 140 to 143 °C

## CCn1cnc2c(Nc3cccc(NC(=O)C#Cc4ccc(C)c(C)c4)c3)nc(N[C@H]3CC[C@H](O)CC3)nc21 [Example 110, N-(3-[9-Ethyl-2-(trans-4-hydroxy-cyclo-hexylamino)-9H-purin-6-yl-amino]-phenyl}-3-(3,4-dimethyl-phenyl)-propargylic acid amide]
  melting point: 146 to 148 °C
